Experimental data from US11672864B2, “Nanostructured gels capable of controlled release of encapsulated agents” (The Brigham and Women's Hospital, Inc., priority 2010, dated 2023).

Assays:
[1] = Gelation and stability of Abz-derived amphiphiles; format: physicochemical
Procedure: A variety of Abz-derived amphiphiles were synthesized (Scheme 3-1). […] In general, mixtures of polar organic solvents with water gave the best gelation results, with only two pure organogels forming (Abz-Alloc in glycerol, and Abz-Chol in 1,4-dioxane). […] The four amphiphiles had widely different solubility and gelation properties, with each amphiphile forming at least two gels.
Gelation. To a vial containing solid amphiphile was added the appropriate solvent. The vial was sealed and heated over a heat gun (˜110° C. max) until amphiphile fully dissolved. The vial was allowed to cool undisturbed at room temperature, during which time gel formed. For all characterization gels were allowed to form for at least 45 minutes.

[2] = Gelation ability and minimum gelation concentration of SMS; format: physicochemical; conditions: for Gelation ability: concentration around 5-9%
Description: MGC values of SMS have varied from 3 to 8 wt/v %.

[3] = Gelation of Asc-Pal in solvents; format: physicochemical
Procedure: Typically, solvents (0.2 mL) were added to a glass scintillation vial with the gelator (0.5-5 wt/vol %) and sealed with a screw cap. The vial was heated to about 60-80° C. until the gelator was completely dissolved. The vial was placed on a stable surface and allowed to cool to room temperature. Typically after 15-45 min, the solution was transitioned into a viscous gel. Gelation was considered to have occurred when no gravitational flow was observed upon inversion of the glass vial, and resulted hydrogels are injectable. Asc-Pal formed gels in water, benzene, toluene, carbon tetrachloride, and acetonitrile; while a precipitate formed in dimethylformamide and dimethylsulfoxide. Asc-Pal was soluble in chloroform and methanol.

[4] = Gelation of Asc-Pal without and with dexamethasone; format: physicochemical; conditions: 20% ethanol in water
Procedure: Self-assembly of the amphiphiles is a delicate process that could be affected by additional agents. To understand the affect of dexamethasone, gelation of Asc-Pal has been explored in 20% ethanol in water by varying concentration of Asc-Pal (1-5% wt/v) while keeping concentration of dexamethasone (2 mg) constant. Results in Table 6-2 reveal that presence of dexamethasone facilitates the self-assembly of Asc-Pal and strengthen the gelation.

glioma cell line, G55 = assay: Cytotoxicity of CPT encapsulated SMS self-assembled fibers, G55; format: cell-based; conditions: G55 cells in culture
Description: (§1) Cytotoxicity Studies of CPT Encapsulated SMS Self-Assembled Fibers. Prior to in vivo studies, evaluation of efficacy of drug delivery systems using appropriate cell lines is an essential step. Efficacy of CPT loaded SMS self-assembled fibers were investigated using glioma cell line, G55 and control cell line fibroblast, NIH3T3. […] We hypothesize that highly proliferative glioma G55 cells secretes high concentrations of enzymes that degrade the self-assembled fibers to release CPT efficiently, whereas free form of CPT degrades in the media due to its low half-life at physiological conditions. […] Encapsulation of Camptothecin and PARP-Inhibitor (AGO14699).

fibroblasts (NIH3T3) = assay: Cytotoxicity of CPT encapsulated SMS self-assembled fibers, NIH3T3; format: cell-based; conditions: Mus musculus; NIH3T3 fibroblasts in culture; unit inferred
Description: as §1

**Q.** For `C=CCOC(=O)Nc1cccc(C(N)=O)c1` [Abz-Alloc], which “Gelation in pure organic solvent” value ([1]; glycerol) is on record?
**A.** Its value is “organogels”.

**Q.** Which Gelation ability ([2]; Acetone) does the source give for `CCCCCCCCCCCCCCCCCC(=O)OC[C@@H](O)[C@H]1OC[C@H](O)[C@H]1O` [Sorbitane Monostearate, sorbitan monostearate] here?
**A.** Its Gelation ability is “Precipitate”.

**Q.** What about the Gelation ability ([2]; Acetonitrile (CH3CN)) of the same compound?
**A.** The Gelation ability was “Precipitate”.

**Q.** And the Gelation ability ([2]; Chloroform)?
**A.** The Gelation ability was “Soluble”.

**Q.** And the Gelation ability ([2]; Dimethyl formamide (DMF))?
**A.** The Gelation ability was “Soluble”.

**Q.** What about the “Minimum Gelation Concentration” value ([2]; Dimethyl sulfoxide (DMSO)) of the same compound?
**A.** The value was 3% Wt/V %.

**Q.** And the “Gelation in gelling solvent” value ([2]; Dimethyl sulfoxide (DMSO) (Table 4-2))?
**A.** Its value is “Gel”.

**Q.** And the Gelation ability ([2]; Dimethyl sulfoxide (DMSO))?
**A.** Its Gelation ability is “Gel”.

**Q.** What about the Gelation ability ([2]; Dioxane) of the same compound?
**A.** Its Gelation ability is “Soluble”.

**Q.** What about the Gelation ability ([2]; Ethanol) of the same compound?
**A.** Its Gelation ability is “Soluble”.

**Q.** And the Gelation ability ([2]; Ethyl acetate)?
**A.** The Gelation ability was “Emulsion”.

**Q.** What about the “Minimum Gelation Concentration” value ([2]; Ethylene glycol) of the same compound?
**A.** Its value is 5% Wt/V %.

**Q.** And the “Gelation in gelling solvent” value ([2]; Ethylene glycol (Table 4-2))?
**A.** The value was “Gel”.

**Q.** And the “Gelation in gelling solvent” value ([2]; Glycerol (Table 4-2))?
**A.** The value was “Gel”.

**Q.** What about the Gelation ability ([2]; Glycerol) of the same compound?
**A.** The Gelation ability was “Gel”.

**Q.** What about the Gelation ability ([2]; Isobutanol) of the same compound?
**A.** The Gelation ability was “Soluble”.

**Q.** And the Gelation ability ([2]; Isopropanol)?
**A.** Its Gelation ability is “Soluble”.

**Q.** And the “Minimum Gelation Concentration” value ([2]; Isopropyl palmitate)?
**A.** The value was 3% Wt/V %.

**Q.** What about the “Gelation in gelling solvent” value ([2]; Isopropyl palmitate (Table 4-2)) of the same compound?
**A.** Its value is “Gel”.

**Q.** What about the Gelation ability ([2]; Isopropyl palmitate) of the same compound?
**A.** Its Gelation ability is “Clear Gel”.

**Q.** What about the Gelation ability ([2]; Methanol) of the same compound?
**A.** The Gelation ability was “Precipitate”.

**Q.** What about the Gelation ability ([2]; Mono-ethylene glycol) of the same compound?
**A.** The Gelation ability was “Weak Gel”.

**Q.** And the Gelation ability ([2]; Polyethylene glycol dimethyl acrylate)?
**A.** Its Gelation ability is “Increased”.

**Q.** And the Gelation ability ([2]; Tetrachloro methane)?
**A.** The Gelation ability was “Soluble”.

**Q.** And the Gelation ability ([2]; Tetrahydrofuran (THF))?
**A.** Its Gelation ability is “Soluble”.

**Q.** And the Gelation ability ([2]; Toluene)?
**A.** Its Gelation ability is “Soluble”.

**Q.** And the “Minimum Gelation Concentration” value ([2]; Water)?
**A.** The value was 3% Wt/V %.

**Q.** What about the “Gelation in gelling solvent” value ([2]; Water (Table 4-2)) of the same compound?
**A.** Its value is “Gel”.

**Q.** What about the Gelation ability ([2]; Water) of the same compound?
**A.** The Gelation ability was “Gel”.

**Q.** What about the Gelation ability ([2]; Xylene) of the same compound?
**A.** Its Gelation ability is “Soluble”.

**Q.** What about the “Minimum gelation concentrations (MGC)” value ([2]; across different solvents) of the same compound?
**A.** The value was 3 to 8 wt/v %.

**Q.** And the “Minimum Gelation Concentration” value ([2]; glycerol)?
**A.** The value was 8% Wt/V %.

**Q.** And the “Minimum Gelation Concentration” value ([2]; n-hexadecane)?
**A.** The value was 2% Wt/V %.

**Q.** And the “Gelation in gelling solvent” value ([2]; n-hexadecane (Table 4-2))?
**A.** Its value is “Gel”.

**Q.** And the Gelation ability ([2]; n-hexadecane)?
**A.** Its Gelation ability is “Gel”.

**Q.** What about the “Minimum Gelation Concentration” value ([2]; n-hexane) of the same compound?
**A.** Its value is 4% Wt/V %.

**Q.** What about the “Gelation in gelling solvent” value ([2]; n-hexane (Table 4-2)) of the same compound?
**A.** The value was “Gel”.

**Q.** And the Gelation ability ([2]; n-hexane)?
**A.** Its Gelation ability is “Gel”.

**Q.** For `NC(=O)c1cccc(NC(=O)Oc2ccc([N+](=O)[O-])cc2)c1` [Abz-PNP], which Stability of amphiphile [1] is on record?
**A.** The Stability of amphiphile was “decompose spontaneously”.

**Q.** Which Gelation behaviour ([3]; acetonitrile) does the source give for `CCCCCCCCCCCCCCCC(=O)OC[C@H](O)[C@H]1OC(=O)C(O)=C1O` [Asc-Pal, Ascorbyl palmitate] here?
**A.** Its Gelation behaviour is “gels”.

**Q.** And the Gelation behaviour ([3]; benzene)?
**A.** Its Gelation behaviour is “gels”.

**Q.** And the Gelation behaviour ([3]; carbon tetrachloride)?
**A.** Its Gelation behaviour is “gels”.

**Q.** What about the Gelation behaviour ([3]; chloroform) of the same compound?
**A.** Its Gelation behaviour is “soluble”.

**Q.** And the Gelation behaviour ([3]; dimethylformamide)?
**A.** The Gelation behaviour was “precipitate”.

**Q.** And the Gelation behaviour ([3]; dimethylsulfoxide)?
**A.** The Gelation behaviour was “precipitate”.

**Q.** And the Gelation behaviour ([3]; methanol)?
**A.** The Gelation behaviour was “soluble”.

**Q.** What about the Gelation behaviour ([3]; toluene) of the same compound?
**A.** The Gelation behaviour was “gels”.

**Q.** What about the Gelation behaviour ([3]; water, gelator 0.5-5 wt/vol %) of the same compound?
**A.** The Gelation behaviour was “gels”.

**Q.** And the Gelation ([4]; 1% Asc-Pal, with dex (2 mg))?
**A.** Its Gelation is “Weak”.

**Q.** What about the Gelation ([4]; 1% Asc-Pal, without drug) of the same compound?
**A.** The Gelation was “Not gel”.

**Q.** What about the Gelation ([4]; 2% Asc-Pal, with dex (2 mg)) of the same compound?
**A.** The Gelation was “Gel”.

**Q.** And the Gelation ([4]; 2% Asc-Pal, without drug)?
**A.** The Gelation was “weak”.

**Q.** And the Gelation ([4]; 3% Asc-Pal, with dex (2 mg))?
**A.** Its Gelation is “Gel”.

**Q.** And the Gelation ([4]; 3% Asc-Pal, without drug)?
**A.** The Gelation was “Gel”.

**Q.** What about the Gelation ([4]; 4% Asc-Pal, with dex (2 mg)) of the same compound?
**A.** The Gelation was “Gel”.

**Q.** What about the Gelation ([4]; 4% Asc-Pal, without drug) of the same compound?
**A.** Its Gelation is “Gel”.

**Q.** And the Gelation ([4]; 5% Asc-Pal, with dex (2 mg))?
**A.** The Gelation was “Gel”.

**Q.** What about the Gelation ([4]; 5% Asc-Pal, without drug) of the same compound?
**A.** The Gelation was “Gel”.

**Q.** With `CC(C)CCC[C@@H](C)[C@H]1CC[C@H]2[C@@H]3CC=C4CC(OC(=O)Nc5cccc(C(N)=O)c5)CC[C@]4(C)[C@H]3CC[C@]12C` (stereo partly shown) [Abz-Chol] as the compound, how does the “Gelation in pure organic solvent” value ([1]; 1,4-dioxane) read?
**A.** The value was “organogels”.

**Q.** With `CC[C@@]1(O)C(=O)OCc2c1cc1n(c2=O)Cc2cc3ccccc3nc2-1` [Camptothecin] as the compound, how does the IC50 (glioma cell line, G55) read?
**A.** The IC50 was 30 nM.

**Q.** What about the IC50 (fibroblasts (NIH3T3)) of the same compound?
**A.** Its IC50 is 3.9 nM.
